Reference: patent publication EP3153160A1, “USE OF XANTHOPHYLLS FOR THE TREATMENT OF CANCERS” (Lu, Chuen Wei, priority 2015, dated 2017)

What was measured:
Assay type in all cases: cell-based
[1] = tested on: Mouse adrenocortical Y1 cell line; assay: Y1 cell growth, cell counting; details: 40 µM astaxanthin, 1, 2 or 3 days of treatment, compared with control (DMSO treated) group; Figures 1 and 2
Procedure: (§1) Mouse adrenocortical Y1 cell line (ATCC, ATCC® CCL-79™) was grown in Dulbecco's modified Eagle medium (DMEM)-F12 supplemented with 10% fetal bovine serum at 37°C in a humidified atmosphere at 5% CO2.
(§2) Astaxanthin (Model NO: ATP-9601A; Yuan Yu Bio-Tech (Taiwan), Co., Ltd) was dissolved in dimethyl sulfoxide (DMSO) at concentration of 20 mM as stock solution.
(§3) The Y1 cells were incubated with DMSO or 40 µM of astaxanthin for 1, 2 or 3 days before analysis.

[2] = tested on: Mouse adrenocortical Y1 cell line; assay: MTT assay of Y1 cell viability; details: Y1 cells, 40 µM astaxanthin for 48 hours, compared with DMSO treated group, Fig. 3
Procedure: as §1, §2, §3
(§4) Cells were washed with PBS after the treatment, followed by addition of 1 ml MTT (3-(4,5-cimethylthiazol-2-yl)-2,5-diphenyl tetrazolium bromide) solution (2 mg/ml in PBS) in each well. After incubation for 3 hours at 37°C, 2 ml of DMSO was added and cells were incubated in the dark for 30 minutes. Absorbance was measured at the wavelength of 570 nm (OD570).

[3] = tested on: Human U87MG; assay: U87MG cell growth, cell counting; details: 100, 200 or 400 µM astaxanthin for 24 hours or 48 hours, cell numbers counted, vs DMSO; Figure 4
Procedure: (§5) Human U87MG (ATCC, ATCC® HTB-14™) cell line was grown in DMEM medium supplemented with 10% fetal bovine serum at 37°C in a humidified atmosphere at 5% CO2. M059K (ATCC, ATCC® CRL-2365™) and M059J (ATCC, ATCC® CRL-2366™) cell lines were grown in Dulbecco's modified Eagle medium (DMEM)-F12 supplemented with 10% fetal bovine serum at 37°C in a humidified atmosphere at 5% CO2.
(§6) Astaxanthin was dissolved in dimethyl sulfoxide (DMSO) at concentration of 20 mM as stock solution.
(§7) The U87MG, M059K, and M059J cell lines were treated with DMSO or 100, 200 or 400 µM of astaxanthin for 24 hours or 48 hours and cell numbers were counted.

[4] = tested on: Human U87MG; assay: MTT assay of U87MG cell viability; details: DMSO or different concentrations of astaxanthin, Figures 5A and 5B
Procedure: as §4, §5, §6, §7

[5] = tested on: M059K; assay: M059K cell growth, cell counting; details: 100, 200 or 400 µM astaxanthin for 24 hours or 48 hours, cell numbers counted, vs DMSO; Figure 6
Procedure: as §5, §6, §7

[6] = tested on: M059J; assay: M059J cell growth, cell counting; details: 100, 200 or 400 µM astaxanthin for 24 hours or 48 hours, cell numbers counted, vs DMSO; Figure 7
Procedure: as §5, §6, §7

[7] = tested on: Human U2OS; assay: U2OS cell growth, cell counting; details: 100, 200 or 400 µM astaxanthin for 72 hours, cell numbers counted, vs DMSO; Figure 8
Procedure: Human U2OS (ATCC, ATCC® HTB-96™) cell line was grown in DMEM medium supplemented with 10% fetal bovine serum at 37°C in a humidified atmosphere at 5% CO2.
as §6
The U2OS cell line was treated with DMSO or 100, 200 or 400 µM of astaxanthin for 72 hours and cell numbers were counted.

## CC1=C(/C=C/C(C)=C/C=C/C(C)=C/C=C/C=C(C)/C=C/C=C(C)/C=C/C2=C(C)C(=O)C(O)CC2(C)C)C(C)(C)CC(O)C1=O (stereo not shown) [astaxanthin, Astaxanthin]
[1]
  number of Y1 cells: reduced
[2]
  OD570: reduced
[3]
  U87MG cell growth: inhibited U87MG cell growth in a dose-dependent and time-dependent manner
[4]
  viability of U87MG cells: reduced
[5]
  M059K cell growth: inhibited
[6]
  M059J cell growth: inhibited
[7]
  U2OS cell growth: inhibited U2OS cell growth in a dose-dependent manner
